Where a name gives a salt, the structure may show the parent alone.
Columns and labels:
[1] = test system: Japanese albino strain male rabbits; assay: Tear secretion promoting action of eye drops (Test Example 1); assay type: in vivo, rabbit; settings: 0.1 w/v % eye drops, 50 μl instilled into one eye, vs basal secretion amount
Protocol: Using Japanese albino strain male rabbits, eye drops containing adrenergic β receptor agonists were examined for their tear secretion promoting actions.
Prior to use, each adrenergic β receptor agonist was dissolved in a phosphate buffer solution to prepare a 0.1 w/v % solution, which was adjusted to the pH ranging 6.0 to 7.5. Compounds used in this experiment are shown below. The phosphate buffer solution served as control.
Six rabbits (12 weeks old, weighing 2.0 to 2.5 kg) were used in each group. A test solution (50 μl) was instilled into one eye of the rabbit, and amounts of tears secreted were measured for 5 minutes from 15 to 10 min prior to the instillation of the test solution, for 5 minutes from 5 to 10 min and for 5 minutes from 20 to 25 min after the instillation, three times in total, by the following method. A local anesthetic, 0.4 w/v % oxybuprocaine hydrochloride solution (Santen Pharmaceutical) (50 μl) was instilled into one eye of the rabbit, 5 min later the remaining eye drops and tears were once soaked up using a water absorbing paper, and then a previously weighed filter paper (5×35 mm) was inserted in the lower eyelid area. Five minutes later, the filter paper was recovered, weighed and the increment in weight was taken as the amount of secreted tears. With the amount of secreted tears prior to the instillation of a test solution taken as a basal secretion amount, ratios of increases in the amount of secreted tears to the basal secretion amount were used as the rate of increase in the tear secretion (%).

[2] = test system: Japanese albino strain male rabbits; assay: Tear protein secretion promoting action of eye drops (Test Example 2); assay type: in vivo, rabbit; settings: 0.1 w/v % eye drops, 50 μl instilled into one eye, vs basal concentration
Protocol: Using Japanese albino strain male rabbits, eye drops containing adrenergic β receptor agonists were examined for their actions to promote the tear protein secretion.
Prior to use, each adrenergic β receptor agonist was dissolved in a phosphate buffer solution to prepare 0.1 w/v % solution, and adjusted to the pH ranging 6.0 to 7.5. Compounds and compositions of eye drops used in this experiment are shown below using the phosphate buffer solution as control.
Six rabbits (12 weeks old, weighing 2.0 to 2.5 kg) were used in each group. A test solution (50 μl) was instilled into one eye of the rabbit, and protein concentrations in tears were measured for 5 minutes from 15 to 10 min prior to the instillation of the test solution, for 5 minutes from 5 to 10 min and for 5 minutes from 20 to 25 min after the instillation, three times in total, using the following method. A local anesthetic, 0.4 w/v % oxybuprocaine hydrochloride solution (Santen Pharmaceutical) (50 μl) was instilled into one eye of the rabbit, 5 min later the remaining eye drops and tears were once soaked up using a water absorbing paper, and then a previously weighed filter paper (5×35 mm) was inserted in the lower eyelid area. Five minutes later, the filter paper was recovered, weighed and the increment in weight was taken as the amount of secreted tears. Immediately after measuring the amount of secreted tears, the filter paper thus recovered was placed in a 1.5-ml test tube, 1 ml of the phosphate buffer solution (pH 7.4) was added thereto, and the test tube was stirred for 30 s. After the removal of the filter paper followed by the centrifugation of the solution at 3,000 rpm for 5 min, a stain reagent of Bio-Rad protein assay kit was added to the supernatant to measure the amount of protein and calculate the total amount of protein in the filter paper. From the total amount of protein and that of secreted tears, the protein concentration in tears was calculated.
With the protein concentration in tears prior to the instillation of a test solution taken as a basal protein concentration, ratios of increases in respective protein concentrations relative to the basal protein concentration were used as the rate of increase in protein concentration in tears (%)

[3] = test system: Japanese albino strain male rabbits; assay: Tear secretion after systemic (ear vein) administration (Test Example 3); assay type: in vivo, rabbit; settings: for Rate of increase in tear secretion (%): 50 μg/rabbit into the ear vein
Protocol: (§1) Using Japanese albino strain male rabbits, injections containing selective adrenergic β2 receptor agonists were examined for their actions to promote the tear secretion and the protein secretion in tears.
(§2) Prior to use, clenbuterol hydrochloride was dissolved in a physiological saline (concentration 50 μg/ml), and adjusted to the pH in the range 6.0 to 7.5. The physiological saline was used as control.
(§3) Six rabbits (11 to 12 weeks old, weighing 2.4 to 2.6 kg) were used in each group. The test solution (50 μg/rabbit) was administered into the ear vein, and amounts of tears secreted were measured 15 to 10 min prior to the administration of the test solution, 5 to 10 min, 20 to 25 min, 40 to 45 min, 60 to 65 min and 120 to 125 min after the administration, six times in total, by the following method. A local anesthetic, 0.4 w/v % oxybuprocaine hydrochloride solution (Santen Pharmaceutical) (50 μl) was instilled into one eye of a rabbit, 5 min later the remaining eye drops and tears were once soaked up using a water absorbing paper, and then a previously weighed filter paper (5×35 mm) was inserted in the lower eyelid area. Five minutes later, the filter paper was recovered, weighed and the increment in weight was taken as the amount of secreted tears. After measuring the amount of secreted tears, the filter paper thus recovered was placed in a 1.5-ml test tube, 1 ml of the phosphate buffer solution (pH 7.4) was added thereto, and the test tube was vortexed for 30 s. After the removal of the filter paper, followed by the centrifugation at 3,000 rpm for 5 min, a stain reagent of Bio-Rad protein assay kit was added to the supernatant to measure the amount of protein and calculate a total amount of protein in the filter paper. From the total amount of protein and that of secreted tears, the protein concentration in tears was calculated. With the amount of secreted tears prior to the administration of a test solution taken as the basal secretion amount, ratios of increases in the secreted tears to the basal secretion amount were used as the rate of increase in the tear secretion (%). In addition, with the protein concentration in tears prior to the administration of a test solution taken as the basal protein concentration, ratios of increases in respective protein concentrations relative to the basal protein concentration were used as the rate of increase in protein concentration in tears (%).

β2 adrenergic receptor = target: T1, β2 adrenergic receptor (Cavia porcellus, UniProt Q8K4Z4); settings: cited from earlier work
T1 construct: a relaxation of smooth muscle (EC50) in an excised trachea or uterus; from tissue; host or cells: excised trachea (tracheal smooth muscle)

[4] = test system: Japanese albino strain male rabbits; assay: Protein concentration in tears after systemic (ear vein) administration (Test Example 3); assay type: in vivo, rabbit; settings: for Rate of increase in protein concentration in tears (%): 50 μg/rabbit into the ear vein
Protocol: as §1, §2, §3

[5] = for 5 minutes from 5 to 10 min after instillation
[6] = for 5 minutes from 20 to 25 min after instillation
[7] = 120-125 min after administration
[8] = intravenous administration, result in words

T1 sequence (Q8K4Z4 whole entry): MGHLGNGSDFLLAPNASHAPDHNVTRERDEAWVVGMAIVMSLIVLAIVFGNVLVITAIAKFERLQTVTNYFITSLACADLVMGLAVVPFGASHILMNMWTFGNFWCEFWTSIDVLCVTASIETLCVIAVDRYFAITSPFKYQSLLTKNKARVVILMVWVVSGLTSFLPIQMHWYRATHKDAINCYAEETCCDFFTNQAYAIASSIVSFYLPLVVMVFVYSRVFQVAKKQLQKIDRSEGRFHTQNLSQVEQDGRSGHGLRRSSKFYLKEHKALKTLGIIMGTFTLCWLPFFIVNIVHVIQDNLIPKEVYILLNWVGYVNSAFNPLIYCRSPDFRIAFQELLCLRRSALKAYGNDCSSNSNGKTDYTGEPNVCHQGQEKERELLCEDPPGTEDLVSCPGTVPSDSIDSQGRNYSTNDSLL

Row | Compound | Rate of increase in tear secretion [1, 5] [%] | Rate of increase in tear secretion [1, 6] [%] | Rate of increase in tear protein concentration [2, 5] [%] | Rate of increase in tear protein concentration [2, 6] [%] | Relative specificity to the tracheal smooth muscle, higher than that of isoproterenol (β2 adrenergic receptor) | other results
1 | CC(C)(C)NCC(O)c1cc(Cl)c(N)c(Cl)c1 (stereo not drawn) [Clenbuterol hydrochloride, clenbuterol hydrochloride] | 36 | 29 | 16 | 53 | about 7000 times | Rate of increase in tear secretion (%) ([3]; 5-10 min after administration): 155%; Rate of increase in tear secretion (%) ([3]; 20-25 min after administration): 146%; Rate of increase in tear secretion (%) ([3]; 40-45 min after administration): 133%; Rate of increase in tear secretion (%) ([3]; 60-65 min after administration): 68%; Rate of increase in tear secretion (%) [3, 7]: 58%; Amount of tear secretion [3, 8]: significant increases; Rate of increase in protein concentration in tears (%) ([4]; 5-10 min after administration): 139%; Rate of increase in protein concentration in tears (%) ([4]; 20-25 min after administration): 148%; Rate of increase in protein concentration in tears (%) ([4]; 40-45 min after administration): 179%; Rate of increase in protein concentration in tears (%) ([4]; 60-65 min after administration): 188%; Rate of increase in protein concentration in tears (%) [4, 7]: 171%; Protein concentration in tears [4, 8]: significant increases
2 | CC(CCc1ccc(O)cc1)NCCc1ccc(O)c(O)c1 (stereo not drawn) [Dobutamine, dobutamine hydrochloride] | 8 | −29 | 9 | −19 |  | 
3 | CC(Cc1ccc(O)cc1)NCC(O)c1cc(O)cc(O)c1 (stereo not drawn) [Fenoterol hydrobromide, fenoterol hydrobromide] | 144 | 49 | 16 | 43 | about 20 times | 
4 | CCC(NC(C)C)C(O)c1ccc(O)c2[nH]c(=O)ccc12 (stereo not drawn) [Procaterol hydrochloride, procaterol hydrochloride] | 118 | 43 | 76 | 109 | about 2000 times | 
5 | CC(C)(C)NCC(O)c1ccc(O)c(CO)n1 (stereo not drawn) [pirbuterol] |  |  |  |  | about 260 times | 
6 | CC(C)(C)NCC(O)c1ccc(O)c(CO)c1 (stereo not drawn) [salbutamol] |  |  |  |  | about 30 times | 

From US6569903B2, “Ophthalmic compositions” (Rohto Pharmaceutical Co., Ltd., priority 1999, dated 2003)
